We go through 53 compounds from patent US20090118135A1, “METHODS AND COMPOUNDS FOR REGULATING APOPTOSIS” (The Burnham Institute, priority 2007, published 2009).

Structures are written as SMILES.

The target of this assay is T1, GST-Bfl-1 (Homo sapiens, UniProt Q16548).
T1 construct: lacking their C-terminal transmembrane domains (about the last 20 amino acids) (“ΔTM”); made in house; host or cells: XL-1 Blue E. coli, pGEX 4T-1
T1 sequence (Q16548 1-155 limits assumed): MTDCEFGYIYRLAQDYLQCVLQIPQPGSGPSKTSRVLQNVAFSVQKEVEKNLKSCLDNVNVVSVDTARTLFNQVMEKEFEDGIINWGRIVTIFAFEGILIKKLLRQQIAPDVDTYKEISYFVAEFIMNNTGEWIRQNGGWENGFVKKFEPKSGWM
Nature of the assay: Bfl-1/FITC-Bid BH3 competitive fluorescence polarization assay. It counts as binding. The following applies: primary HTS hits, MLSCN library (PubChem SIDs), Table 5B. As for the experimental part:
A FPA was performed to determine the binding affinity of FITC-Bid BH3 peptide to Bcl-2 proteins. […] IC50 determinations were performed using GraphPad Prism software (GraphPad, Inc., San Diego, Calif.). FPA competition assays were performed using the same procedure described above, except that 100 nM of GST-Bfl-1 protein in a volume of 45 μl was incubated with 5 μl (50 μM) test compounds in DMSO per well for 30 min prior to addition of 50 μl (5 nM) FITC-Bid BH3 peptide. The final DMSO concentration was 5% when the reactions brought to fall volume of 100 μl. Fluorescence polarization was measured after 10 min. Compounds that reduced the fluorescence polarization by 50% were considered hits.
A general note: Fluorescence polarisation rises when a labelled molecule tumbles more slowly, as on binding a larger partner.
Regarding `Nc1nc(-c2ccco2)nn1C(=O)CCc1ccccc1` [Compound 4254649], the “% Activity” value is reported as 63.2% and the FRatio was determined as 0.83.
On the same counts, the results for `Cc1cc(C)nc(Nc2ccc(N3CCCC3)cc2)n1` [Compound 4256031] are 108.1% and 0.2.
On the same counts, the results for `CCOc1ccc(C(=O)Nc2ccc(N3CCN(C)CC3)cc2)cc1Br` [Compound 4256635] are 70% and 0.53.
The corresponding values for `Cc1ccc(CNc2ccc3c(c2)OCO3)cc1` [Compound 4257119] are 50.6% and 1.2.
In the case of `COc1ccc2c(c1)c(=O)oc1cc(OCC(=O)N3CCC(C)CC3)ccc12` [Compound 4257486], the “% Activity” value is reported as 104.8% and the FRatio was determined as 0.49.
On the same counts, the results for `Cc1ccc(C)n1-c1cccc(C(=O)O)c1` [Compound 4257870] are 95.8% and 0.65.
For the compound `O=C(Nc1ccccc1)c1ccc2nc(-c3ccco3)c(-c3ccco3)nc2c1` [Compound 4258186], the “% Activity” value is listed as 52.2% and the FRatio stood at 0.88.
In the case of `O=C(Nc1ccc2nc(-c3ccco3)c(-c3ccco3)nc2c1)N1CCCCCC1` [Compound 4258795], the “% Activity” value was 83.2% and the FRatio turned out to be 0.96.
The corresponding values for `COCc1cc(C2SCC(=O)Nc3c2c(O)nn3C(C)C)ccc1OC` (stereo not shown) [Compound 4258907] are 67.1% and 1.2.
The corresponding values for `CCCCCc1nnc(NC(=O)Cc2cccs2)s1` [Compound 4259217] are 69.2% and 0.51.
On the same counts, the results for `CC(=O)c1sc2nc(SCC(=O)N3CCCCC3)nc(O)c2c1C` [Compound 4259313] are 57% and 0.82.
As to `Cc1nc2ccc(C(=O)O)cc2c2c1CC(C)S2` (stereo not shown) [Compound 4259932], the “% Activity” value turned out to be 54.7% and the FRatio is 0.6.
On the same counts, the results for `c1ccc(CSc2nnc(-c3ccco3)c(-c3ccco3)n2)cc1` [Compound 4260465] are 93.8% and 0.72.
On the same counts, the results for `CCOc1ccc2nc(O)c(O)nc2c1` [Compound 4261310] are 69.6% and 1.46.
The corresponding values for `CCCC1=C(C(=O)OCC)C(c2cc(Cl)cc(OC)c2OCC(=O)OCC)NC(=O)N1` (stereo not shown) [Compound 4262430] are 50.9% and 1.19.
In the case of `COC(=O)c1cccc(NC(=O)CSc2nc(C)cc(O)n2)c1` [Compound 4262437], the “% Activity” value was determined as 59.9% and the FRatio was 0.64.
The corresponding values for `Cc1ccc2cccc(S(=O)(=O)Nc3ccc4c(c3)OCO4)c2n1` [Compound 4262919] are 80.6% and 0.67.
In the case of `CCOC(=O)c1ccc2c(c1)C1C=CCC1C(C(=O)O)N2` (stereo not shown) [Compound 4263567], the “% Activity” value was 111.5% and the FRatio is 0.4.
The corresponding values for `c1cc2c3c(cccc3c1)NC1(CCCCCC1)N2` [Compound 4263637] are 64.3% and 0.58.
On the same counts, the results for `COc1ccc(N2C(=O)c3cccc4cccc(c34)C2=O)nn1` [Compound 4265126] are 58.8% and 0.88.
On the same counts, the results for `COc1ccccc1-c1nnc2sc(-c3cnccn3)nn12` [Compound 4265558] are 75.3% and 0.59.
As for `Cc1cc2c(cc1C)NC(c1c(C)n(C)n(-c3ccccc3)c1=O)C1=C(O)CC(C)(C)CC1=N2` (stereo not shown) [Compound 4265815], the “% Activity” value is reported as 58.3% and the FRatio worked out at 1.46.
The corresponding values for `COc1ccc(Nc2cc(C)nc3nc(C)nn23)cc1Cl` [Compound 7967129] are 82.3% and 1.11.
On the same counts, the results for `CN(C)c1ccc(NC(=O)Cn2cc3c(n2)CCCC3)cc1` [Compound 7968138] are 57.6% and 0.56.
The corresponding values for `COc1ccc(N2Cc3cccc(C(=O)O)c3C2=O)cc1` [Compound 7969281] are 113.7% and 0.86.
Consider `O=C(NCCN1CCCCCC1)C1CCC(CNS(=O)(=O)c2cccc3cccnc23)CC1` (stereo not shown) [Compound 7969436], for which the “% Activity” value turned out to be 51.8% and the FRatio amounted to 0.97.
The corresponding values for `Cc1csc2nc(CNS(=O)(=O)N(C)C)cn12` [Compound 7970333] are 53.8% and 0.96.
Turning to `CCOC(=O)C1=C(C)S/C(=C\N(C)C)C1=O` [Compound 7972859], the “% Activity” value is listed as 68.4% and the FRatio was 0.91.
The corresponding values for `Cc1cccc(OCC(=O)Nc2ccc(S(=O)(=O)N3CCCC3)cc2)c1` [Compound 7973703] are 79.2% and 0.82.
The corresponding values for `C=CCSc1nnc2nc3c(nn12)c1cc(C)ccc1n3CC=C` [Compound 7973953] are 69.4% and 0.82.
On the same counts, the results for `COc1ccc(NC(=O)c2cnn3c(C(F)(F)F)cc(-c4ccco4)nc23)cc1OC` [Compound 7974080] are 52% and 0.9.
For the compound `Cc1ccc(O)c(/N=C/C2=C(O)c3ccccc3C2=O)c1` [Compound 7974116], the “% Activity” value amounted to 56% and the FRatio is reported as 0.92.
The corresponding values for `Cc1ccc(OCC(=O)Nc2ccc(N3CCCC3)cc2)cc1C` [Compound 7974807] are 90.6% and 0.76.
`Cc1cccc(OCC(=O)Nc2ccc(N3CCCC3)cc2)c1C` [Compound 7975075]: the “% Activity” value is reported as 76.1% and the FRatio was determined as 0.72.
For the compound `O=C1CCCC2=C1C(c1ccco1)Nc1ccc3ccccc3c12` (stereo not shown) [Compound 7975176], the “% Activity” value was 52.2% and the FRatio was determined as 0.73.
The corresponding values for `Brc1ccc2ncnc(Nc3ccc(N4CCOCC4)cc3)c2c1` [Compound 7975247] are 86.8% and 0.87.
For the compound `Cc1ccccc1C1C(=O)c2sc3nc4c(c(=O)n3c2C1=O)CCC4` (stereo not shown) [Compound 7977096], the “% Activity” value was determined as 50.8% and the FRatio came out at 0.88.
For `CCSc1nnc(NC(=O)c2cnccn2)s1` [Compound 7977261], the “% Activity” value turned out to be 58.3% and the FRatio is 1.19.
As to `O=c1oc2c3c4c(cc2s1)CCCN4CCC3` [Compound 7978324], the “% Activity” value is reported as 66.9% and the FRatio amounted to 1.02.
Take `CC1=C(N2C(=O)c3ccc4c5c(ccc(c35)C2=O)CC4)C(C)N(c2ccccc2)N1C` (stereo not shown) [Compound 7978392]: the “% Activity” value came to 111.5% and the FRatio was 0.39.
The corresponding values for `Cc1ccc2nc(O)c(C3C(C#N)=C(N)Oc4c3ccc3cccnc43)cc2c1` (stereo not shown) [Compound 14720783] are 55% and 0.84.
Regarding `Cc1cccc2cc(C(c3nnnn3C(C)(C)C)N(Cc3ccco3)CC3CCCO3)c(O)nc12` (stereo not shown) [Compound 14720806], the “% Activity” value amounted to 64.5% and the FRatio is on record as 0.95.
On the same counts, the results for `Cc1cc2cc(CN(Cc3ccco3)S(=O)(=O)c3c(C)ccc4nsnc34)c(O)nc2cc1C` [Compound 14720830] are 56% and 1.29.
The corresponding values for `O=C(Nc1ccccc1C(=O)O)c1ccccc1` [Compound 14723278] are 85.4% and 0.87.
On the same counts, the results for `Cn1c(=O)n(C)c2cc(S(=O)(=O)Nc3ccccc3O)ccc21` [Compound 14723355] are 52.9% and 0.98.
Take `c1cc2c3c(cccc3c1)NC1(CCCCC1)N2` [Compound 14724643]: the “% Activity” value is 52.7% and the FRatio is given as 0.82.
The corresponding values for `c1nnnn1C12CC3CC(CC(C3)C1)C2` [Compound 14725293] are 60.7% and 0.98.
On the same counts, the results for `Nc1ccc(N2CCN(C(=O)c3cccs3)CC2)cc1` [Compound 14726238] are 57.8% and 0.87.
On the same counts, the results for `Cc1ccc(-c2nnc(S)n2/N=C/C=C/c2ccccc2[N+](=O)[O-])cc1` [Compound 14729394] are 55.5% and 0.81.
Regarding `Cc1ccc(C)n1-c1sccc1C(=O)O` [Compound 14729511], the “% Activity” value was found to be 80% and the FRatio is given as 0.77.
Regarding `COc1ccc2c(c1)c(=O)oc1cc(OCC(=O)NC3CCCCC3)ccc12` [Compound 14730237], the “% Activity” value stood at 78.9% and the FRatio stood at 0.91.
The corresponding values for `COc1ccc2c(c1)c(=O)oc1cc(OCC(=O)N3CCc4ccccc4C3)ccc12` [Compound 14730322] are 59.7% and 0.75.
The corresponding values for `O=C(Nc1ccc(N2CCCC2)cc1)C(c1ccccc1)c1ccccc1` [Compound 14730995] are 64.1% and 0.9.
